Tests used:
Type in all cases: cell-based, human
184B5 cells = experiment: Crystal violet cellular proliferation assay; conditions: 100 μg/mL
Protocol: The 184B5 line is an immortalized, non-tumorogenic cell line derived from primary cultures of HMECs immortalized with benzo(a)pyrene (provided by Dr. M. R. Stampfer) and was maintained in Clonetics mammary epithelial cells medium (MEGM).
(§1) One×10^3 cells per well were seeded in 96 well dishes (Coming Costar, Cambridge, Mass.). Primary cultures of HMECs, A1N4 and 184B5 cells were evaluated at two different cell densities (seeded at 1×10^3 and 2×10^3 per well). After 24 hours of cell attachment, cells in triplicate wells were treated with pentamer at a concentration of 100 μg/mL. The cells on the same plate were treated with corresponding controls: (i) media containing DMSO, and (ii) media with no additions.
Cells were treated for 1, 2, 3, 6, 8 and 10 days, but in some cases, the samples were collected at days 2, 3, 4, 7 and 10 post-treatment. Each treatment was conducted in triplicate. Samples were collected at each time point as follows: media was removed and 50 μL of crystal violet solution (0.1% of crystal violet in 0.1 M citric acid solution) was added to each well at room temperature and plates were incubated for 15 minutes, followed by washing with deionized water. […] The optical density (OD) of samples was read at 550 nm on an Ultramark Microplate Imagining System (BioRad, Philadelphia, Pa.). […] Statistical significance was determined using the t test analysis.

AIN4 cells = experiment: Crystal violet cellular proliferation assay; conditions: 100 μg/mL
Protocol: The 184A1N4 cell line (hereinafter “A1N4”) is a non-tumorigenic cell line derived from primary cultures of HMECs and immortalized with benzo(a)pyrene (provided by Dr. M. R. Stampfer, University of California, Berkley, Calif.) (Stampfer, M. R. et al., Proc. Natl. Acad. Sci. USA, 82: 2394-2398, 1985). These cells were maintained in IMEM medium with 0.5% FBS, 0.5 μg/mL of hydrocortisone (Biofluids), 5 μg/mL insulin and 10 ng/mL of EGF.
as §1
Cells were treated for 1, 2, 3, 6, 8 and 10 days, but in some cases, the samples were collected at days 2, 3, 4, 7 and 10 post-treatment. Each treatment was conducted in triplicate. […] The optical density (OD) of samples was read at 550 nm on an Ultramark Microplate Imagining System (BioRad, Philadelphia, Pa.). […] Statistical significance was determined using the t test analysis.

Cdc2 (Tyr15) = experiment: LPS multi-well plate phosphorylation screen in MDA MB-231 cells; conditions: 100 μg/mL, densitometry vs control
Source text: (§2) Layered Protein Scanning (LPS) is a method for screening liquid protein samples in a high throughput manner using multi-well plates [Englert, C. R. et al., Cancer Res., 60: 1526-1530, 2000], and conducted by 20/20 Gene Systems, Inc., (Rockville, Md.). In short, cells are lysed and protein extract loaded into the wells of vacuum manifold and transferred through a stack of membranes. From each set of samples, up to five dot blot membranes are generated.
(§3) MDA MB-231 human breast cancer cells were treated, with or without 100 μg/mL pentamer, for 48 and 72 hours. Cells were lysed in LPS/MWP lysis buffer (20/20 Gene Systems, Inc.). Protein concentration was determined using BCA Protein Assay Kit (Pierce, Rockford, Ill.). Ten and 20 μg of each protein sample was loaded in duplicate onto Bio-Dot Microfiltration Apparatus (BioRad, Philadelphia, Pa.) and transferred through a 5-membrane stack as recommended by the manufacturer (20/20 Gene Systems). After the transfer, all of the membranes were biotinylated in 1 mg/mL EZ-Link Sulfo-NHS-Biotin solution in 1×PBS for 10 minutes at room temperature (Pierce).
(§4) Membranes were incubated overnight at 4° C. with the antibodies shown in Table 1 (1:500 or 1:1000 dilution). The following day, membranes were washed in Tris-buffered saline with Tween 20 (0.1%) (TBST buffer) and incubated for 60 minutes at room temperature in a mixture of FluoroLink Cy 5-labeled Streptavidin (1:500, Amersham) and Fluorescein-labeled secondary anti-mouse or anti-rabbit antibody (1:2,000, Molecular Probes, Eugene, Oreg.), followed by washes in TBST. Membranes were dried and scanned on a Typhoon scanner (Amersham), and obtained images were analyzed with InageQuant software (Amersham). Data were plotted in Excel and statistically analyzed in JMP (SAS Institute, Inc., Cary, N.C.). Hierarchical clustering analysis was performed to evaluate segregation of samples into control and treated groups.

FKHR (Ser256) = experiment: as above; conditions: 100 μg/mL, 72 hours, densitometry vs control
Source text: as §2, §3, §4

PKC-δ at Ser643 = experiment: as above; conditions: 100 μg/mL
Source text: as §2, §3, §4

[1] = system: SAPK/JNK at Thr183/Tyr185; experiment: as above; conditions: 100 μg/mL
Source text: as §2, §3, §4

Stat 5 at Tyr 694 = experiment: as above; conditions: 100 μg/mL
Source text: as §2, §3, §4

p53 = experiment: High resolution profiling (P-FILM) of p53 in MDA MB-468 cells; conditions: 100 μg/mL
Protocol: Both p53 and pRb contain multiple phosphorylation sites, and evaluating each site separately provides a more accurate indication of each protein's potential function. Therefore, a high resolution functional profiling of the proteins was performed using P-FILM technology (20/20 Gene Systems, Inc.).
The same protein samples as those used for PDVF membrane blotting were used. Ten μg of each protein sample of MDA MB-231 cells, and in some cases MDA MB-468 and MCF-7 cells, treated with 100 μg /mL of pentamer or DMSO-treated controls, were separated by PAGE on 4-20% gradient gels (BioRad). Proteins were transferred on a stack of ten membranes, according to manufacturer's instructions (20/20 Gene Systems, Inc.). The membranes were probed with antibodies recognizing total and phosphorylated p53 (p53Ser6, Ser9, Ser15, Ser20, Ser37, Ser46 and Ser392) at 1:1000 dilution as recommended by the manufacturer (Cell Signaling). The secondary antibody used in all cases was anti-rabbit polyclonal 1:2000 (Amersham). Signals were visualized on BIOMAX MR film (Kodak). The profiling of pRb was done using anti-phospho pRb (Ser780, Ser 795 and Ser 807/811) and anti-pRb polyclonal antibody (Cell Signaling) at a 1:1000 dilution. The secondary antibody used in all cases was anti-rabbit at 1:2000 dilution (Amersham). Image analysis was performed with Kodak 1D image analysis software. Background corrected intensity values were normalized for loading by using GAPDH intensities. Numerical analysis was performed in Excel.

SMILES: Oc1cc(O)c2c(c1)O[C@H](c1ccc(O)c(O)c1)[C@H](O)[C@H]2c1c(O)cc(O)c2c1O[C@H](c1ccc(O)c(O)c1)[C@H](O)[C@H]2c1c(O)cc(O)c2c1O[C@H](c1ccc(O)c(O)c1)[C@H](O)[C@H]2c1c(O)cc(O)c2c1O[C@H](c1ccc(O)c(O)c1)[C@H](O)[C@H]2c1c(O)cc(O)c2c1O[C@H](c1ccc(O)c(O)c1)[C@H](O)C2 [pentamer, pentameric procyanidin]
- day post-treatment at which significant sensitivity to pentamer was exhibited (184B5 cells): 10 days
- growth inhibited, in comparison to DMSO-treated controls (184B5 cells): 2.8 fold
- growth inhibited, in comparison to DMSO-treated controls (AIN4 cells): 7.3 fold
- phosphorylation of Cdc2 (Tyr15) decreased (Cdc2 (Tyr15); 48 hrs): 31%
- phosphorylation of Cdc2 (Tyr15) decreased (Cdc2 (Tyr15); 72 hrs): 45%
- phosphorylation of FKHR (Ser256) decreased (FKHR (Ser256)): 63%
- phosphorylation of PKC-δ at Ser643 decreased (PKC-δ at Ser643; 48 hrs): 22%
- phosphorylation of PKC-δ at Ser643 decreased (PKC-δ at Ser643; 72 hrs): 49%
- phosphorylation of SAPK/JNK at Thr183/Tyr185 decreased ([1]; 48 hrs): 34%
- phosphorylation of SAPK/JNK at Thr183/Tyr185 decreased ([1]; 72 hrs): 26%
- Stat 5 phosphorylation at Tyr 694 decreased (Stat 5 at Tyr 694; 48 hrs): 28%
- Stat 5 phosphorylation at Tyr 694 decreased (Stat 5 at Tyr 694; 72 hrs): 33%
- percentage of p53 phosphorylated at Ser392 decreased, compared to untreated controls (p53; MD MB-468): 33%
- expression of endogenous p53 (p53; MDA MB-468): not significantly affected
- phosphorylation of p53 Ser15 and Ser46 (p53; MDA MB-468): not significantly affected
